In patent US8062678B2, “Extractive of Piper laetispicum C.DC., its process and its uses” (priority 2004, dated 2011):

How the values were obtained:
mouse [1] = experiment: Mouse tail suspension test; assay type: in vivo; settings: 50 mg/kg/d intragastric, 14 days, within 6 minutes, x ± s, n = 10
Description: The tail suspension test is a simple and easy experimental method introduced by Stern et al in 1985 for evaluation of antidepressant drugs. […] Clinically effective antidepressant drugs can reduce the motionless time of the mouse after it cannot successfully escape through its efforts following being suspended at the tail.
The mice are randomized into groups, and each of the groups receives intragastric administration of the corresponding dose of Drag A (Sample 1-1 in Case of Implementation 1), B (Sample 10 in Case of Implementation 1), C (Sample 7 in Case of Implementation 1), D (Sample 3 in Case of Implementation 1) and E (Sample 5 in Case of Implementation 1), which is administered once a day consecutively for 14 days, and normal saline is used as control at the same time, and positive control is Venlafaxine. One (1) hour after the drug is administered for the last time, the mouse tail suspension test is performed, the duration is 6 minutes, and the stationary and motionless time within the 6 minutes is recorded, and the results are as shown in Table 9.

rat = experiment: Rat swimming test; assay type: in vivo; settings: 30 mg/kg/d intragastric, 14 days, 5 minutes swimming, x ± s, n = 10
Protocol: After having fasted for 4 hours, the rats are placed in a 40×18 cm glass cylinder with water depth at 15 cm (water temperature at 25° C.) for swimming for 15 minutes, and are dried with a hot blower. Then, based on Table 8, the rats are randomized into 6 groups, and each of the groups receives intragastric administration of the corresponding dose of Drug A (Sample 1-1 in Case of Implementation 1) and B (Sample 10 in Case of Implementation 1), which is administered once a day consecutively for 14 days, and normal saline is used as control at the same time, and positive control is Venlafaxine. One (1) hour after the drug is administered for the last time, the rat swimming test begins, the swimming time is 5 minutes, and the motionless time during the 5 minutes for which they are swimming is recorded, and the results are as shown in Table 8.

mouse [2] = experiment: Mouse swimming test; assay type: in vivo; settings: 30 mg/kg/d intragastric, 14 days, within 4 minutes, x ± s, n = 10
Protocol: The despair test as put forth by Porsolt et al can serve as the evaluation model for the effects of antidepressant drugs. In this model, a mouse or a rat is placed in a limited and inescapable space for swimming, and the animal can be induced to have motionless status. Such status is a reflection of the animal's despair, and the status can be inhibited by some effective antidepressant drugs.
One (1) hour after the drug is administered on Day 14, the animal is placed into a 10×20 cm glass cylinder with water depth at 8˜10 cm and water temperature at 22˜24° C. Beginning from the 2nd minute, the accumulated time of motionless status within 4 minutes is recorded, and the results are as shown in Table 7.

mouse [3] = experiment: Anti-anxiety effect, mouse four board test; assay type: in vivo; settings: 1 mg/kg/d; 30 minutes after drug; within 10 minutes; x ± s, n = 8
Protocol: The mice are randomized into groups, and are respectively given test drugs based on Table 10, namely Drug A (Sample 1-1 in Case of Implementation 1), B (Sample 10 in Case of Implementation 1), C (Sample 7 in Case of Implementation 1), F (Sample 9 in Case of Implementation 1) and G (Sample 11 in Case of Implementation 1), and normal saline is used as control, and positive control group is diazepam. The mouse is placed on the boards 30 minutes after the drug is administered, and is made to explore for 15 seconds. After that, whenever the mouse moves from one board to another board, one electric shock is given with amperage at 0.35 mA and duration time at 0.5 s. The mouse should present an obvious escape response because of this, and usually moves across 2 boards or 3 boards, if the mouse continues to run, no electric shock is given for […] thereafter.

mouse [4] = experiment: Analgesic effect, writhing test; assay type: in vivo; settings: 50 mg/kg; benzoquinone i.p. 30 minutes after drug; within 10 minutes; x ± s, n = 10
Protocol: A chemical stimulant with definite solvents and at a definite concentration is injected into the abdominal cavity of the mouse to stimulate splanchnoderm and peritoneum parietale so as to cause deep, large-area and long-time inflammatory pain and result in behavioral reactions in the mouse such as concaving the abdomen, extending the trunk and back limbs and raising the buttocks, which are called the writhing response. […]
The mice are randomized into groups, and are respectively given test drugs based on Table 12, namely Drug A (Sample 1-1 in Case of Implementation 1), C (Sample 7 in Case of Implementation 1) and B (Sample 10 in Case of Implementation 1), and normal saline is used as control at the same time, and positive control group is acetyl salicylic acid. The mice are respectively injected intraperitoneally with 0.20 ml of 0.02% benzoquinone water solution 30 minutes later, and are immediately placed into a box with four sides sealed, and, beginning from the first occurrence of writhing responses in the mice, time is kept for 10 minutes, and the number of writhing responses in the mice is recorded within 10 minutes thereafter, and the results are as shown in Table 12.

[5] = system: rat brain synaptosome (re)uptake of noradrenaline (3H-NA); experiment: Inhibition of brain synaptosome uptake of noradrenaline; assay type: biochemical; settings: positive control drug 0.1 mM; 3H-NA 300 nM, 37° C.; lower CPM = more inhibition
Protocol: 10 μl of substrate (^3H-5HT, ^3H-NA or ^3H-DA; final reaction concentration: 300 nM) is added in a 4° C. environment and is thoroughly mixed, and the tubes are placed in a 37° C. water bath for a warm bath for 5 minutes. After that, precooled Tris-Krebs buffer is added into each tube to terminate reaction, and the multichannel cell harvestor is immediately used for sucking filtration through fiberglass filter membrane, and the same solution in the same volume is used to wash tubes and filter. The filter membrane is removed and oven dried. The filter membrane is placed in the scintillation vial, methylbenzene scintillation fluid is added, and counting is performed with the β-liquid scintillation counter.

MAO-A in mouse brain = target: T1, MAO-A in mouse brain (Mus musculus, UniProt Q64133); experiment: Inhibition of monoamine oxidase A in the brains of mice; assay type: in vivo; settings: 25 mg/kg; mouse brain after 14 days; x ± SD, n = 10
T1 construct: from tissue; host or cells: mouse brain
T1 sequence (Q64133 1-526): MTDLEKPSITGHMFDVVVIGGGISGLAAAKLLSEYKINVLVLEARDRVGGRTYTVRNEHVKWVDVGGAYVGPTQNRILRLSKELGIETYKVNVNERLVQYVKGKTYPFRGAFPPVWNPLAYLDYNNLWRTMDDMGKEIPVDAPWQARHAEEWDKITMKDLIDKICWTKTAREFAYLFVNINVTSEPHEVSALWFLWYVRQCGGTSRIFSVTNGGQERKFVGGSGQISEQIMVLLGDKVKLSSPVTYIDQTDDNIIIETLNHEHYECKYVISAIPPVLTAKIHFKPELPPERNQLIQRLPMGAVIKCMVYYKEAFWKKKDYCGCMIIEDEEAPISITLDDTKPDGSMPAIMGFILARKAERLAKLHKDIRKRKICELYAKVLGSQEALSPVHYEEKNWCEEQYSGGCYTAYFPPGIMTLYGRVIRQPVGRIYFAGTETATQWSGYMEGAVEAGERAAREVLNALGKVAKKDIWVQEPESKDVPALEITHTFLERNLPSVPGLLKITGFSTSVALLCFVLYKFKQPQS
Description: (§1) The biological function of monoamine oxidase (MAO) lies in its adjustment of the level for in vivo endogenous amines (noradrenaline, dopamine and 5-hydroxytryptamine) and exogenous amine substances. Based on its substrate and its inhibitor specificity, monoamine oxidase can be divided into two types (MAO-A and MAO-B). Dopamine and tyramine are two MAO substrates, 5-HT and noradrenaline are Type A substrates, while β-phenethylamine and benzylamine are Type B substrates, and iprazid and tranylcypromine are nonselective inhibitors for MAO.
(§2) The mice are randomized into groups, and based on Table 6, intragastric administration of the corresponding doses of test Drug A (Sample 1-1 in Case of Implementation 1) is performed for each of the groups, which are administered once a day consecutively for 14 days, and normal saline is used as a control at the same time, and the positive control is paxil. One (1) hour after the last administration, the animals are put to death through neck dislocation, and the brain is immediately taken for testing MAO activity.

[6] = system: rat brain synaptosome (re)uptake of dopamine (3H-DA); experiment: Inhibition of brain synaptosome uptake of dopamine; assay type: biochemical; settings: positive control drug 1 mM; 3H-DA 300 nM, 37° C.; lower CPM = more inhibition
Description: The physiological mechanism for the […] and dopaminergic functions is similar to that for 5-hydroxytryptamine. Clinically, there are many antidepressant drugs that can block the reuptake of noradrenaline and/or 5-hydroxytryptamine and/or dopamine.
First of all, the method of Whittaker et al (Whittaker V P & Barker L A. The subcellular tractionation of brain tissue with special reference to the preparation of synaptosomes and their component organelles. In: Fried R. ed. In Methods in Neurochemistry, Vol. New York: Marcel Dakker, Inc, 1972) is referred to for preparing brain synaptosome, and the specific procedures are: decapitate the rat and take out the cerebrum quickly, place it in precooled normal saline, and remove cerebral pia mater and vascular tissues. Take cerebral cortex, and place it in cold sugar solution. Use ultrasonic cell disruptor for producing homogenate and centrifuging to obtain refined brain synaptosome for future use. […]

MAO-B in mouse brain = target: T2, MAO-B in mouse brain (Mus musculus, UniProt Q8BW75); experiment: Inhibition of monoamine oxidase B in the brains of mice; assay type: in vivo; settings: 25 mg/kg; mouse brain after 14 days; x ± SD, n = 10
T2 construct: from tissue; host or cells: mouse brain
T2 sequence (Q8BW75 1-520): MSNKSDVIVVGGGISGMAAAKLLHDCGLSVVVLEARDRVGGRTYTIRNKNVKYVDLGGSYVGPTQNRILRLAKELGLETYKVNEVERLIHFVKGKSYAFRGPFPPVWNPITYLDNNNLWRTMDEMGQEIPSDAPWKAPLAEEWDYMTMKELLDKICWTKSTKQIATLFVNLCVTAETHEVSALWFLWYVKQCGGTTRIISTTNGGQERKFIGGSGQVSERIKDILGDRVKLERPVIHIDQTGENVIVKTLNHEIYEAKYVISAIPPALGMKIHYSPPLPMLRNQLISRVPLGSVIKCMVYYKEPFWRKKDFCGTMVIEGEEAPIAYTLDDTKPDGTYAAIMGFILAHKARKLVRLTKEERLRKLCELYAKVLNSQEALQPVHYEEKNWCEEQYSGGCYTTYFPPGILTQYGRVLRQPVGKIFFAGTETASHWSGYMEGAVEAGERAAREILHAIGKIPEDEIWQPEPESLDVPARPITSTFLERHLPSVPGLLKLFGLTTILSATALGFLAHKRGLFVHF
Description: as §1, §2

COc1ccc(C(CN(C)C)C2(O)CCCCC2)cc1 (stereo not drawn) [Venlafaxine]
Accumulated Motionless Time (mouse [1]): 57.5 ± 43.0 s
Accumulated Motionless Time (rat): 211.2 ± 24.7 s

CNCCC(Oc1ccc(C(F)(F)F)cc1)c1ccccc1 (stereo not drawn) [Fluoxetine]
Accumulated Motionless Time (mouse [2]): 73.7 ± 17.2 s

CN1C(=O)CN=C(c2ccccc2)c2cc(Cl)ccc21 [diazepam]
Accumulated Number of Electric Shocks (mouse [3]): 12.78 ± 2.05

CC(=O)Oc1ccccc1C(=O)O [acetyl salicylic acid]
Accumulated Number of Writhing Responses (mouse [4]): 9.89 ± 1.09

CNCCCN1c2ccccc2CCc2ccccc21 [Desipramine]
Inhibition of Monoamine Uptake (CPM) Noradrenaline [5]: 1499 CPM

Fc1ccc([C@@H]2CCNC[C@H]2COc2ccc3c(c2)OCO3)cc1 [Paxil]
MAO-A (OD) (MAO-A in mouse brain): 0.012 ± 0.005 OD
Inhibition of Monoamine Uptake (CPM) Dopamine [6]: 1197 CPM
MAO-B (OD) (MAO-B in mouse brain): 0.025 ± 0.008 OD
